Test results as given in patent US20240368120A1 (Terns Pharmaceuticals, Inc., priority 2023, published 2024).

Target: T1, human GLP-1R receptor (Homo sapiens, UniProt P43220)
T1 construct: expressed in transfected cells
Assay: GLP-1R low expression cell assay (cAMP TR-FRET, CHO-K1_hGLP-1Rlow_clone10 cells)
Assay type: cell-based
Conditions: for EC50: cAMP TR-FRET, 30 min at 25° C.; for Emax: maximum activation relative to control GLP-1 peptide agonist
Method in brief: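 CHO-K1 cells stably expressing low surface human GLP-1R (clone10), 1,000 cells/well, exposed to 10-point 3-fold compound dilutions for 30 min at 25 °C. cAMP measured by TR-FRET (Eu-cAMP tracer/ULight-anti-cAMP, 15 min). EC50 from Hill fit of duplicate percent activation relative to a parallel GLP-1 control agonist.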

T1 sequence (P43220 24-463): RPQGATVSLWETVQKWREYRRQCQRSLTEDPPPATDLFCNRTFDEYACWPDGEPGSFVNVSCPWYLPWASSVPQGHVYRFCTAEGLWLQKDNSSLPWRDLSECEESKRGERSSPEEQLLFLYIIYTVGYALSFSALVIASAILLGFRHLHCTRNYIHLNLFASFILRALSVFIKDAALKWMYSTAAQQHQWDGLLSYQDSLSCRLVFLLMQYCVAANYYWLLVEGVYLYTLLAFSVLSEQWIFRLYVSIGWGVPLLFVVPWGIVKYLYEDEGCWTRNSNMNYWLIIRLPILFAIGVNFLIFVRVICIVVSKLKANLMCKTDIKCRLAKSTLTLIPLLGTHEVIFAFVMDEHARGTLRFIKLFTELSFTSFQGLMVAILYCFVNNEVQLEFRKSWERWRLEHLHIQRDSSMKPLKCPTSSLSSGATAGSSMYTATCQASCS

Structure (SMILES)	EC50 [nM]	Emax [%]
[2H]C([2H])(Oc1cccc(C2CCN(Cc3nc4c(OC(F)F)cc(C(=O)O)cc4n3C)CC2)n1)c1ccc(Cl)cc1F [Compound 195, 2-((4-(6-((4-Chloro-2-fluorophenyl)methoxy-d2)pyridin-2-yl)piperidin-1-yl)methyl)-4-(difluoromethoxy)-1-methyl-1H-benzo[d]imidazole-6-carboxylic acid]	10 to 100	> 85
Cn1c(CN2CCC(c3cccc(OCc4ccc(Cl)cc4F)n3)CC2)nc2c(OCCF)cc(C(=O)O)cc21 [Compound 170, 2-((4-(6-((4-Chloro-2-fluorobenzyl)oxy)pyridin-2-yl)piperidin-1-yl)methyl)-4-(2-fluoroethoxy)-1-methyl-1H-benzo[d]imidazole-6-carboxylic acid]	< 10	> 85
N#Cc1ccc(COc2cccc(C3CCN(Cc4nc5c6c(c(C(=O)O)cc5n4C[C@@H]4CCO4)OCCO6)CC3)n2)c(F)c1 [Compound 100, (S)-2-((4-(6-((4-Cyano-2-fluorobenzyl)oxy)pyridin-2-yl)piperidin-1-yl)methyl)-3-(oxetan-2-ylmethyl)-7,8-dihydro-3H-[1,4]dioxino[2′,3′:3,4]benzo[1,2-d]imidazole-5-carboxylic acid]	< 10	> 85
CC(F)(F)c1cc(C(=O)O)cc2c1nc(CN1CCC(c3cccc4c3O[C@@](C)(c3ccc(Cl)cn3)O4)CC1)n2C[C@@H]1CCO1 [Compound 386, 2-((4-((S)-2-(5-Chloropyridin-2-yl)-2-methylbenzo[d][1,3]dioxol-4-yl)piperidin-1-yl)methyl)-4-(1,1-difluoroethyl)-1-(((S)-oxetan-2-yl)methyl)-1H-benzo[d]imidazole-6-carboxylic acid]	10 to 100	> 85
Cn1c(CN2CCC(c3ccc(Cl)c(OCc4ccc(Cl)cc4F)c3)CC2)nc2c(OC(F)F)cc(C(=O)O)cc21 [Compound 194, 2-((4-(4-Chloro-3-((4-chloro-2-fluorobenzyl)oxy)phenyl)piperidin-1-yl)methyl)-4-(difluoromethoxy)-1-methyl-1H-benzo[d]imidazole-6-carboxylic acid]	100 to 1000	> 85
Cn1c(CN2CCC(c3cccc(OCc4ccc(Cl)cc4F)n3)CC2)nc2c(OCC3CC3)cc(C(=O)O)cc21 [Compound 357, 2-((4-(6-((4-Chloro-2-fluorobenzyl)oxy)pyridin-2-yl)piperidin-1-yl)methyl)-4-(cyclopropylmethoxy)-1-methyl-1H-benzo[d]imidazole-6-carboxylic acid]	< 10	> 85
COCCOc1cc(C(=O)O)cc2c1nc(CN1CCC(c3cccc4c3O[C@](C)(c3ccc(Cl)cn3)O4)CC1)n2Cc1cncs1 [Compound 3, (R)-2-((4-(2-(5-Chloropyridin-2-yl)-2-methylbenzo[d][1,3]dioxol-4-yl)piperidin-1-yl)methyl)-4-(2-methoxyethoxy)-1-(thiazol-5-ylmethyl)-1H-benzo[d]imidazole-6-carboxylic acid]	100 to 1000	> 85
Cn1c(CN2CCC(c3cccc(OCc4ccc(Cl)cn4)n3)CC2)nc2c(OC(F)F)cc(C(=O)O)cc21 [Compound 247, 2-((4-(6-((5-Chloropyridin-2-yl)methoxy)pyridin-2-yl)piperidin-1-yl)methyl)-4-(difluoromethoxy)-1-methyl-1H-benzo[d]imidazole-6-carboxylic acid]	100 to 1000	> 85
Cn1c(CN2CCC(c3cccc(OCc4ccc(Cl)cc4F)n3)CC2)nc2c(OCC3(C#N)CC3)cc(C(=O)O)cc21 [Compound 214, 2-((4-(6-((4-Chloro-2-fluorobenzyl)oxy)pyridin-2-yl)piperidin-1-yl)methyl)-4-((1-cyanocyclopropyl)methoxy)-1-methyl-1H-benzo[d]imidazole-6-carboxylic acid]	100 to 1000	50 to 85
CCOc1cc(C(=O)O)cc2c1nc(CN1CCC(Oc3cccc(COc4ccc(C#N)cc4F)n3)CC1)n2C [Compound 290, 2-((4-((6-((4-Cyano-2-fluorophenoxy)methyl)pyridin-2-yl)oxy)piperidin-1-yl)methyl)-4-ethoxy-1-methyl-1H-benzo[d]imidazole-6-carboxylic acid]	< 10	> 85
COCCOc1cc(C(=O)O)cc2[nH]c(CN3CCC(c4cccc5c4O[C@@](C)(c4ccc(Cl)cn4)O5)CC3)nc12 [Compound 74, (S)-2-((4-(2-(5-Chloropyridin-2-yl)-2-methylbenzo[d][1,3]dioxol-4-yl)piperidin-1-yl)methyl)-4-(2-methoxyethoxy)-1H-benzo[d]imidazole-6-carboxylic acid]	10 to 100	> 85
C[C@@H](F)Oc1cc(C(=O)O)cc2c1nc(CN1CCC(c3cccc(OCc4ccc(Cl)cc4F)n3)CC1)n2C (single isomer, unassigned) [Compound 361]	10 to 100	> 85
N#Cc1ccc(COc2cccc(C3CCN(Cc4nc5ccc(C(=O)O)c6c5n4CCO6)CC3)n2)c(F)c1 [Compound 104, 2-((4-(6-((4-Cyano-2-fluorobenzyl)oxy)pyridin-2-yl)piperidin-1-yl)methyl)-3,4-dihydro-5-oxa-1,2a-diazaacenaphthylene-6-carboxylic acid]	100 to 1000	> 85
Cn1c(CN2CCC(c3cccc4c3O[C@H](c3ccc(C#N)cc3F)CO4)CC2)nc2c(OCCF)cc(C(=O)O)cc21 [Compound 315, (R)-2-((4-(3-(4-Cyano-2-fluorophenyl)-2,3-dihydrobenzo[b][1,4]dioxin-5-yl)piperidin-1-yl)methyl)-4-(2-fluoroethoxy)-1-methyl-1H-benzo[d]imidazole-6-carboxylic acid]	10 to 100	> 85

Further lines, results first:

EC50 [nM]	Emax [%]	Structure (SMILES)
100 to 1000	> 85	Cn1c(CN2CCC(c3cccc(OCc4ccc(Cl)cc4F)n3)CC2)nc2c(NCCF)cc(C(=O)O)cc21 [Compound 186, 2-((4-(6-((4-Chloro-2-fluorobenzyl)oxy)pyridin-2-yl)piperidin-1-yl)methyl)-4-((2-fluoroethyl)amino)-1-methyl-1H-benzo[d]imidazole-6-carboxylic acid]
< 10	> 85	COc1cc(C(=O)O)cc2c1nc(Cc1ccc(-c3cccc(OCc4ccc(C#N)cc4F)n3)cc1F)n2C [Compound 342, 2-(4-(6-((4-cyano-2-fluorobenzyl)oxy)pyridin-2-yl)-2-fluorobenzyl)-4-methoxy-1-methyl-1H-benzo[d]imidazole-6-carboxylic acid]
10 to 100	> 85	CCOc1cc(-c2nc(=O)o[nH]2)cc2c1nc(CN1CCC(c3cccc(OCc4ccc(C#N)cc4F)n3)CC1)n2C [Compound 260, 4-(((6-(1-((4-ethoxy-1-methyl-6-(5-oxo-2,5-dihydro-1,2,4-oxadiazol-3-yl)-1H-benzo[d]imidazol-2-yl)methyl)piperidin-4-yl)pyridin-2-yl)oxy)methyl)-3-fluorobenzonitrile]
100 to 1000	> 85	Cn1c(CN2CCC(c3cccc(OCc4ccc(C#N)cc4F)n3)CC2)nc2c3c(c(C(=O)O)cc21)OCCO3 [Compound 289, 2-((4-(6-((4-Cyano-2-fluorobenzyl)oxy)pyridin-2-yl)piperidin-1-yl)methyl)-3-methyl-7,8-dihydro-3H-[1,4]dioxino[2′,3′:3,4]benzo[1,2-d]imidazole-5-carboxylic acid]
< 10	> 85	COc1cc(Cl)ccc1COc1cccc(C2CCN(Cc3nc4c(OC)cc(C(=O)O)cc4n3C)CC2)n1 [Compound 348, 2-((4-(6-((4-Chloro-2-methoxybenzyl)oxy)pyridin-2-yl)piperidin-1-yl)methyl)-4-methoxy-1-methyl-1H-benzo[d]imidazole-6-carboxylic acid]
10 to 100	> 85	Cn1c(CN2CCC(c3ccc(F)c(OCc4ccc(Cl)cc4F)n3)CC2)nc2c(OC(F)F)cc(C(=O)O)cc21 [Compound 242, 2-((4-(6-((4-Chloro-2-fluorobenzyl)oxy)-5-fluoropyridin-2-yl)piperidin-1-yl)methyl)-4-(difluoromethoxy)-1-methyl-1H-benzo[d]imidazole-6-carboxylic acid]
< 10	> 85	CN(c1nc2c(OC(F)F)cc(C(=O)O)cc2n1C[C@@H]1CCO1)[C@H]1CC[C@H](c2cccc(OCc3ccc(C#N)cc3F)n2)CC1 [Compound 132, 2-(((1r,4S)-4-(6-((4-cyano-2-fluorobenzyl)oxy)pyridin-2-yl)cyclohexyl) (methyl)amino)-4-(difluoromethoxy)-1-(((S)-oxetan-2-yl)methyl)-1H-benzo[d]imidazole-6-carboxylic acid]
10 to 100	> 85	Cn1c(CN2CCC(c3cccc(OCc4ccc(Cl)cc4F)n3)CC2)nc2c(Cl)cc(C(=O)O)cc21 [Compound 218, 4-chloro-2-((4-(6-((4-chloro-2-fluorobenzyl)oxy)pyridin-2-yl)piperidin-1-yl)methyl)-1-methyl-1H-benzo[d]imidazole-6-carboxylic acid]
> 1000	> 85	Cn1c(CN2CCC(n3nccc3OCc3ccc(Cl)cc3F)CC2)nc2c(OC(F)F)cc(C(=O)O)cc21 [Compound 200, 2-((4-(5-((4-Chloro-2-fluorobenzyl)oxy)-1H-pyrazol-1-yl)piperidin-1-yl)methyl)-4-(difluoromethoxy)-1-methyl-1H-benzo[d]imidazole-6-carboxylic acid]
< 10	> 85	C[C@H](F)Oc1cc(C(=O)O)cc2c1nc(CN1CCC(c3cccc(OCc4ccc(Cl)cc4F)n3)CC1)n2C (single isomer, unassigned) [Compound 360]
< 10	> 85	[2H]C([2H])(C)Oc1cc(C(=O)O)cc2c1nc(CN1CCC(c3cccc(OC([2H])([2H])c4ccc(C#N)cc4F)n3)CC1)n2C [Compound 285, 2-((4-(6-((4-Cyano-2-fluorophenyl)methoxy-d2)pyridin-2-yl)piperidin-1-yl)methyl)-4-(ethoxy-1,1-d2)-1-methyl-1H-benzo[d]imidazole-6-carboxylic acid]
